Data taken from patent US5863716A, “Treatment of plasmodium” (The Leland Stanford Junior University Board of Trustees, priority 1997, dated 1999).

Test system: P. falciparum
Assay: Intraerythrocytic development in long term synchronized culture, parasitemia over consecutive cycles
Type: cell-based, Plasmodium falciparum
Experimental: Synchronized cultures 12 h after invasion were subjected to different concentrations of PPMP. Parasitemias of drug-treated cultures were determined at various time points during two intraerythrocytic cycles and compared to cells grown in the absence of drug.
The effect of the single lipid analogs to inhibit parasite development in long term culture in consecutive cycles of the parasite growth were investigated. The studies were initiated with synchronized, young rings (0-12h) at 10% parasitemia. In order to ensure healthy growth of the malaria parasite in vitro, the parasitemias of the cultures are not allowed to exceed 10%. Yet under normal conditions a 3-6 fold increase in parasitemias is detected with each round of invasion: thus for each new cycle, the cultures were diluted 4-fold into fresh erythrocytes in the absence or presence of the drug. […] The lowest effective, killing concentration of PDMP over three cycles of growth is 1.0 μM.

[1] = PPMP 0.05 μM, time in drug 0 h, time of cycle 12 h, cycle 1
[2] = PPMP 0.05 μM, time in drug 34 h, time of cycle 46 h, cycle 1, culture fourfold diluted
[3] = PPMP 0.05 μM, time in drug 60 h, time of cycle 12 h, cycle 2
[4] = PPMP 0.05 μM, time in drug 80 h, time of cycle 32 h, cycle 2, culture fourfold diluted
[5] = PPMP 0.05 μM, time in drug 104 h, time of cycle 8 h, cycle 3
[6] = PPMP 0.1 μM, time in drug 0 h, time of cycle 12 h, cycle 1
[7] = PPMP 0.1 μM, time in drug 34 h, time of cycle 46 h, cycle 1, culture fourfold diluted
[8] = PPMP 0.1 μM, time in drug 60 h, time of cycle 12 h, cycle 2
[9] = PPMP 0.1 μM, time in drug 80 h, time of cycle 32 h, cycle 2, culture fourfold diluted
[10] = PPMP 0.1 μM, time in drug 104 h, time of cycle 8 h, cycle 3
[11] = PPMP 0.5 μM, time in drug 0 h, time of cycle 12 h, cycle 1
[12] = PPMP 0.5 μM, time in drug 34 h, time of cycle 46 h, cycle 1, culture fourfold diluted
[13] = PPMP 0.5 μM, time in drug 60 h, time of cycle 12 h, cycle 2
[14] = PPMP 0.5 μM, time in drug 80 h, time of cycle 32 h, cycle 2, culture fourfold diluted
[15] = PPMP 0.5 μM, time in drug 104 h, time of cycle 8 h, cycle 3
[16] = PPMP 1.0 μM, time in drug 0 h, time of cycle 12 h, cycle 1
[17] = PPMP 1.0 μM, time in drug 34 h, time of cycle 46 h, cycle 1, culture fourfold diluted
[18] = PPMP 1.0 μM, time in drug 60 h, time of cycle 12 h, cycle 2
[19] = PPMP 1.0 μM, time in drug 80 h, time of cycle 32 h, cycle 2, culture fourfold diluted
[20] = PPMP 1.0 μM, time in drug 104 h, time of cycle 8 h, cycle 3
[21] = PPMP 5.0 μM, time in drug 0 h, time of cycle 12 h, cycle 1
[22] = PPMP 5.0 μM, time in drug 34 h, time of cycle 46 h, cycle 1, culture fourfold diluted
[23] = PPMP 5.0 μM, time in drug 60 h, time of cycle 12 h, cycle 2
[24] = PPMP 5.0 μM, time in drug 80 h, time of cycle 32 h, cycle 2, culture fourfold diluted
[25] = PPMP 5.0 μM, time in drug 104 h, time of cycle 8 h, cycle 3

**Q.** For `CCCCCCCCCCCCCCCC(=O)N[C@H](CN1CCOCC1)[C@H](O)c1ccccc1` (relative stereo) [PPMP, dl-threo-1-phenyl-2-palmitoylamino-3-morpholino-1-propanol], which “effect on trophozoite stage parasites” value is on record?
**A.** blocks the development of trophozoite stage parasites

**Q.** What about the “effect on ring development” value (5 μM, first cycle) of the same compound?
**A.** completely inhibits rings in their first cycle growth

**Q.** And the “growth inhibition with increasing concentration” value (0.05 to 1.0 μM PPMP)?
**A.** gradual increase in the observed growth inhibition

**Q.** What about the “parasitemia [%], ring” value [1] of the same compound?
**A.** 10%

**Q.** What about the “parasitemia [%], schizont” value [1] of the same compound?
**A.** 0%

**Q.** And the “parasitemia [%], trophozoite” value [1]?
**A.** 0%

**Q.** What about the “parasitemia [%], ring” value [2] of the same compound?
**A.** 0%

**Q.** What about the “parasitemia [%], schizont” value [2] of the same compound?
**A.** 5%

**Q.** What about the “parasitemia [%], trophozoite” value [2] of the same compound?
**A.** 4%

**Q.** And the “parasitemia [%], ring” value [3]?
**A.** 5%

**Q.** What about the “parasitemia [%], schizont” value [3] of the same compound?
**A.** 1%

**Q.** What about the “parasitemia [%], trophozoite” value [3] of the same compound?
**A.** 0%

**Q.** And the “parasitemia [%], ring” value [4]?
**A.** 5%

**Q.** What about the “parasitemia [%], schizont” value [4] of the same compound?
**A.** 0%

**Q.** And the “parasitemia [%], trophozoite” value [4]?
**A.** 0%

**Q.** And the “parasitemia [%], ring” value [5]?
**A.** 1%

**Q.** What about the “parasitemia [%], schizont” value [5] of the same compound?
**A.** 0%

**Q.** What about the “parasitemia [%], trophozoite” value [5] of the same compound?
**A.** 0%

**Q.** What about the “parasitemia [%], ring” value [6] of the same compound?
**A.** 10%

**Q.** What about the “parasitemia [%], schizont” value [6] of the same compound?
**A.** 0%

**Q.** And the “parasitemia [%], trophozoite” value [6]?
**A.** 0%

**Q.** What about the “parasitemia [%], ring” value [7] of the same compound?
**A.** 0%

**Q.** What about the “parasitemia [%], schizont” value [7] of the same compound?
**A.** 5%

**Q.** What about the “parasitemia [%], trophozoite” value [7] of the same compound?
**A.** 4%

**Q.** And the “parasitemia [%], ring” value [8]?
**A.** 4%

**Q.** What about the “parasitemia [%], schizont” value [8] of the same compound?
**A.** 1%

**Q.** What about the “parasitemia [%], trophozoite” value [8] of the same compound?
**A.** 0%

**Q.** And the “parasitemia [%], ring” value [9]?
**A.** 4%

**Q.** What about the “parasitemia [%], schizont” value [9] of the same compound?
**A.** 0%

**Q.** What about the “parasitemia [%], trophozoite” value [9] of the same compound?
**A.** 0%

**Q.** And the “parasitemia [%], ring” value [10]?
**A.** 1%

**Q.** What about the “parasitemia [%], schizont” value [10] of the same compound?
**A.** 0%

**Q.** What about the “parasitemia [%], trophozoite” value [10] of the same compound?
**A.** 0%

**Q.** What about the “parasitemia [%], ring” value [11] of the same compound?
**A.** 10%

**Q.** And the “parasitemia [%], schizont” value [11]?
**A.** 0%

**Q.** What about the “parasitemia [%], trophozoite” value [11] of the same compound?
**A.** 0%

**Q.** What about the “parasitemia [%], ring” value [12] of the same compound?
**A.** 0%

**Q.** What about the “parasitemia [%], schizont” value [12] of the same compound?
**A.** 4%

**Q.** What about the “parasitemia [%], trophozoite” value [12] of the same compound?
**A.** 5%

**Q.** What about the “parasitemia [%], ring” value [13] of the same compound?
**A.** 4%

**Q.** What about the “parasitemia [%], schizont” value [13] of the same compound?
**A.** 1%

**Q.** And the “parasitemia [%], trophozoite” value [13]?
**A.** 0%

**Q.** What about the “parasitemia [%], ring” value [14] of the same compound?
**A.** 5%

**Q.** What about the “parasitemia [%], schizont” value [14] of the same compound?
**A.** 0%

**Q.** And the “parasitemia [%], trophozoite” value [14]?
**A.** 0%

**Q.** And the “parasitemia [%], ring” value [15]?
**A.** 1%

**Q.** What about the “parasitemia [%], schizont” value [15] of the same compound?
**A.** 0%

**Q.** And the “parasitemia [%], trophozoite” value [15]?
**A.** 0%

**Q.** And the “parasitemia [%], ring” value [16]?
**A.** 10%

**Q.** And the “parasitemia [%], schizont” value [16]?
**A.** 0%

**Q.** And the “parasitemia [%], trophozoite” value [16]?
**A.** 0%

**Q.** And the “parasitemia [%], ring” value [17]?
**A.** 0%

**Q.** And the “parasitemia [%], schizont” value [17]?
**A.** 4%

**Q.** What about the “parasitemia [%], trophozoite” value [17] of the same compound?
**A.** 4%

**Q.** And the “parasitemia [%], ring” value [18]?
**A.** 3%

**Q.** And the “parasitemia [%], schizont” value [18]?
**A.** 2%

**Q.** What about the “parasitemia [%], trophozoite” value [18] of the same compound?
**A.** 0%

**Q.** What about the “parasitemia [%], ring” value [19] of the same compound?
**A.** 3%

**Q.** What about the “parasitemia [%], schizont” value [19] of the same compound?
**A.** 0%

**Q.** What about the “parasitemia [%], trophozoite” value [19] of the same compound?
**A.** 0%

**Q.** And the “parasitemia [%], ring” value [20]?
**A.** 1%

**Q.** And the “parasitemia [%], schizont” value [20]?
**A.** 0%

**Q.** What about the “parasitemia [%], trophozoite” value [20] of the same compound?
**A.** 0%

**Q.** And the “parasitemia [%], ring” value [21]?
**A.** 10%

**Q.** What about the “parasitemia [%], schizont” value [21] of the same compound?
**A.** 0%

**Q.** What about the “parasitemia [%], trophozoite” value [21] of the same compound?
**A.** 0%

**Q.** And the “parasitemia [%], ring” value [22]?
**A.** 9%

**Q.** What about the “parasitemia [%], schizont” value [22] of the same compound?
**A.** 0%

**Q.** And the “parasitemia [%], trophozoite” value [22]?
**A.** 0%

**Q.** And the “parasitemia [%], ring” value [23]?
**A.** 2%

**Q.** What about the “parasitemia [%], schizont” value [23] of the same compound?
**A.** 0%

**Q.** And the “parasitemia [%], trophozoite” value [23]?
**A.** 0%

**Q.** And the “parasitemia [%], ring” value [24]?
**A.** 0%

**Q.** What about the “parasitemia [%], schizont” value [24] of the same compound?
**A.** 0%

**Q.** What about the “parasitemia [%], trophozoite” value [24] of the same compound?
**A.** 0%

**Q.** What about the “parasitemia [%], ring” value [25] of the same compound?
**A.** 0%

**Q.** What about the “parasitemia [%], schizont” value [25] of the same compound?
**A.** 0%

**Q.** And the “parasitemia [%], trophozoite” value [25]?
**A.** 0%

**Q.** What about the effect on development (concentrations as low as 0.05 μM, first cycle) of the same compound?
**A.** do not stop development through the first cycle

**Q.** What about the “efficacy compared with PDMP” value (long term culture) of the same compound?
**A.** more effective than PDMP
